Measured values as given in US6927039B2, “Enzymatic process” (Nanobiodesign Limited, priority 2000, dated 2005).
Like-named read-outs stand apart in the source and are kept apart here.

Assays:
cytochrome P450 BM3 [1] = target: T1, cytochrome P450 BM3 (Priestia megaterium, UniProt P14779); test: Substrate binding by spectral titration of the haem high spin band, purified enzyme (in vitro); parameters: expressed in transfected cells; host or cells: E. coli BL21(DE3) transformed with pT7Bm3Z; species or system Bacillus megaterium
T1 sequence (P14779 1-1049): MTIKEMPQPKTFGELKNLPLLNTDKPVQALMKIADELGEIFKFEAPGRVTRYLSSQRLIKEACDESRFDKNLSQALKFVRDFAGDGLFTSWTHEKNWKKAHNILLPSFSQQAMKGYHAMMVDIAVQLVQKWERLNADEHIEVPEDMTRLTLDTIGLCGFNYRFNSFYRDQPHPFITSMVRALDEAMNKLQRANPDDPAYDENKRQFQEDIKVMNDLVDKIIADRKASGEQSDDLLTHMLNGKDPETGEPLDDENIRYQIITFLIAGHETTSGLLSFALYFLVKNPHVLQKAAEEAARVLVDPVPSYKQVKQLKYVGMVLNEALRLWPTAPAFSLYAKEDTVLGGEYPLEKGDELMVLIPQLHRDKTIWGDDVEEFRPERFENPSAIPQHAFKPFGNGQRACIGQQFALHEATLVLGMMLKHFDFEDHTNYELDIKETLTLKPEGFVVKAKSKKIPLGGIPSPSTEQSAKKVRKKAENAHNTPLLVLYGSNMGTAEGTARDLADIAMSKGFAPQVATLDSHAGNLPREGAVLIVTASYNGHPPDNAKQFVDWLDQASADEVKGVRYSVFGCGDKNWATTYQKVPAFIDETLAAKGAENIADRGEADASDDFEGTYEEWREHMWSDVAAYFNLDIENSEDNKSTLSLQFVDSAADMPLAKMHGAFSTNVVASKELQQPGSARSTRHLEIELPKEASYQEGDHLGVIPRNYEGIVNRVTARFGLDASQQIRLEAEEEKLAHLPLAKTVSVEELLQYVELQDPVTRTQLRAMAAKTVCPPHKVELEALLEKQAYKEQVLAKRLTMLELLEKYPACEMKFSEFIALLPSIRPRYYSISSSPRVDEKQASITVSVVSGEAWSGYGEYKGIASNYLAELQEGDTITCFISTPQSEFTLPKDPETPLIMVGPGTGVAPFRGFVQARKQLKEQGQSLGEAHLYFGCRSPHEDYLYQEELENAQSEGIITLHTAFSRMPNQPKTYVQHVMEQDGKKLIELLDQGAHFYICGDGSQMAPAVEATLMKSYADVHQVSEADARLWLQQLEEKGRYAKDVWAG
Method: Substrate Binding and NADPH Consumption Assays. Substrate binding was followed in a Hewlett-Packard 8452A diode array spectrophotometer, equipped with a Hewlett-Packard peltier temperature controller 89090 by monitoring the increase in the high spin band of the haem at 390 nm, upon titration with different substrates. The dissociation constant Kd was calculated by fitting the obtained data to the equation [ES]=((ΔA390-ΔA421)max·[S]free)/(Kd+[S]free) where [ES]=(ΔA390-ΔA421)/(ΔA392-ΔA421)max·[P450 BM3] and [S]free=[S]added−[ES].
(§1) NADPH consumption was followed at 340 nm using a Δε340=6.22 mM^−1·cm^−1. Both assays were performed at 20° C. using P450 BM3 in 100 mM potassium phosphate buffer, pH 8.0. Reaction was initiated by addition to the substrate bound enzyme of NADPH to a final concentration of 130-150 μM. In the kinetics assay the rate constant kcat was calculated from the linear part of the decrease in A340 with time, which lasted at least for the first 4 sec. The enzyme concentration typically varied between 0.4 and 0.8 μM in the binding assay and between 8 and 25 nM in the catalytic assay. Substrate stock solutions were freshly prepared the day of the assay. Fatty acid stock solutions were in 50 mM potassium carbonate, SDS was easily dissolved in water, while TCE stock solutions were prepared in ethanol. If appropriate, stocks of candidate agents may be prepared in, for example, N,N-dimethylformamide just before the assay. […] The confidence interval for Kd given in the results section is the mean±the standard deviation of at least four measurements, as calculated using the software Kaleidagraph. Similarly kcat was calculated by fitting data points to the Michaelis-Menten equation. Each data point is the mean of at least four measurements.

E.coli BL21(DE3) cells = test: Toxicity of substrate to the whole cells used in the assay; format: cell-based
Method: When the initial rate of AA, LA, and SDS oxidation was plotted against substrate concentration a Michaelis-Menten-type curve was obtained as shown in FIG. 6. […] The kinetic parameters determined following the substrate-dependent NADPH oxidation with time in the whole-cell assay are given in Table 1. For all the three substrates the extent of uncoupling of P450 BM3 from substrate hydroxylation was also determined in a whole-cell assay. This was essentially an adaptation of the hydrogen peroxide quantification method of HRP with ABTS described for the experiments carried out on purified enzyme.
The potential lethal effect that high concentrations of substrate may have on whole cells (as in the case of arachidonic acid at concentrations higher than 170 μM, FIG. 7A.) can be overcome without loss of sensitivity by successive small additions of substrate. The increase of the A360 signal with subsequent additions of SDS to whole cells expressing P450 BM3 is reported in FIG. 8, where it can be observed how the increase in the absorbance becomes limited by the NADPH concentration. At 1.5 h after NADPH addition, when SDS is supplied periodically to the cells an increase of about 45% in the NADP^+ production is seen, which should correspond to a ratio of sample A360 signal/blank signal of about 30. […]

cytochrome P450 BM3 [2] = target: T1, cytochrome P450 BM3; test: Hydrogen peroxide determination (uncoupling) by HRP/ABTS assay, purified enzyme; format: biochemical, Bacillus megaterium; parameters: expressed in transfected cells; host or cells: E. coli BL21(DE3) transformed with pT7Bm3Z; conditions: 150 μM NADPH
Method: Hydrogen Peroxide Determination. Uncoupled reactions were determined by measuring the production of hydrogen peroxide during substrate turnover using the horseradish peroxidase (HRP)/2′2-Azino-di(3-ethyl-benzathiazoline-6-sulphonic acid) (ABTS) assay as described by Childs and Bardsley (31). The extinction coefficient at 414 nm of the radical cation of ABTS was calculated to 32.95 mM^−1 cm^−1, in accordance with the published value. The assay mixture composition was essentially similar to that utilised during the substrate-dependent NADPH consumption assay (20-30 nM P450 BM3 in 100 mM potassium phosphate buffer pH 8.0, 150 μM NADPH, and at least 1.7 times higher substrate concentration relative to NADPH concentration). When all NADPH was consumed (as judged from the disappearance of the 340 nm peak) the hydrogen peroxide produced was measured. Uncoupling in whole cells was measured following essentially the same assay in whole cells in 100 mM potassium phosphate buffer pH 8.0 incubated with substrate and NADPH as in the alkali method.

cytochrome P450 BM3 [3] = target: T1, cytochrome P450 BM3; test: Alkali assay of NADP+ production in whole E.coli BL21(DE3) cells expressing P450 BM3 (in vivo assay); conditions: for R (Remark): substrate or no-interaction with P450 BM3; for Vmax: alkali assay; for Vmax / time at which the plateau of the A360 alkali product curve is reached: NADPH 1.5 mM; for time at which the plateau of the A360 alkali product curve is reached: substrate concentration about 0.8 mM; for substrate concentration above which the linear region of NADPH oxidation was found in the first 25 min: ~0-25 min after NADPH addition
Method: The hydroxylating activity of whole cells expressing cytochrome P450 BM3 was measured in terms of NADP^+ production. […] The assay has been adapted in a microtitre plate format as follows. A single colony from freshly transformed E.coli BL21(pT7Bm3Z) cells was inoculated into 170 μl LB/ampicillin (120 μg/ml) in a microtitre plate well. Cells were grown to an OD600˜0.8 before being induced with 1 mM IPTG. After incubation at 37° C. for 16 hours after induction, the cells were harvested and washed once with 100 mM potassium phosphate buffer pH 8.0. The cell pellet was stored in the −20° C. freezer before running the alkali test within the next few days. The cell pellet was then resuspended at 1:1.3 dilution in 100 mM potassium phosphate buffer pH 8.0. to give an OD600 of about 0.4, to which the substrate at the desired concentration was added (stock solutions of substrates as described for the binding and catalytic assays). A control consisting of cells in phosphate buffer added with the same amount of potassium carbonate solution or ethanol or N,N-dimethylformamide, without substrate was run for every sample. All samples were incubated at room temperature overnight. NADPH at 1.5 mM was then added to the samples and at 1 h after NADPH addition, an aliquot (typically 70 μl) was transferred in a new microtitre plate to which was added the same volume (typically 70 μl) of 0.3 M HCl, so that the final pH in the mixture is about 2. The aliquots were incubated for at least 10 min at room temperature, to ensure complete destruction of the remaining reduced NADPH. An aliquot (typically 70 μl) was then removed and transferred in a new microtitre plate with 280 μl of 9 M NaOH to yield a solution of a pH of about 14.8. The mixture was immediately mixed thoroughly and placed in the dark. The product was left to develop in dark for at least 2.5 h at room temperature, after which the absorbance at 360 nm or the emission at 455 nm (λex=360 nm) was measured.

cytochrome P450 BM3 [4] = target: T1, cytochrome P450 BM3; test: Substrate-dependent NADPH consumption assay at 340 nm, purified enzyme (in vitro); format: biochemical, Bacillus megaterium; parameters: expressed in transfected cells; host or cells: E. coli BL21(DE3) transformed with pT7Bm3Z; conditions: NADPH 130-150 μM, 20° C., pH 8.0
Method: as §1

[5] = 20° C., 100 mM potassium phosphate buffer pH 8.0, read-out: Kd

SMILES | Kd (cytochrome P450 BM3 [1]; printed as an order-of-magnitude range in M, read-out: Kd) [µM] | toxicity to E.coli BL21(DE3) cells (E.coli BL21(DE3) cells) | concentration above which the substrate has a lethal effect on whole cells (E.coli BL21(DE3) cells; E.coli BL21(DE3) cells expressing P450 BM3) | % H2O2 (cytochrome P450 BM3 [2]) [%] | R (Remark) (cytochrome P450 BM3 [3]) | Kd (cytochrome P450 BM3 [1]; [5]) [µM] | Vmax (cytochrome P450 BM3 [3]; whole cells) [nM NADP^+/min] | time at which the plateau of the A360 alkali product curve is reached (cytochrome P450 BM3 [3]; whole cells) [h] | substrate concentration above which the linear region of NADPH oxidation was found in the first 25 min (cytochrome P450 BM3 [3]; whole cells) | ratio of sample A360 signal/blank signal (cytochrome P450 BM3 [3]; whole cells, SDS supplied periodically, 1.5 h after NADPH addition) | KM (cytochrome P450 BM3 [4]) | kcat (cytochrome P450 BM3 [4]) | Kd (cytochrome P450 BM3 [1]; 20° C., 100 mM potassium phosphate buffer pH 8.0)
CCCCC/C=C\C/C=C\C/C=C\C/C=C\CCCC(=O)O [AA, arachidonic acid] | ~0.1 | relatively high toxicity | higher than 170 μM | 0.11 | S | – | – | – | – | – | – | – | –
CCCCCCCCCCCC(=O)O [LA, lauric acid] | – | – | – | 0.66 | S | 135 ± 38.2 | 10.26 ± 0.87 | 7 | higher than 200 μM | – | – | – | –
CCCCCCCCCCCCOS(=O)(=O)[O-].[Na+] [SDS, sodium dodecyl sulphate] | – | – | – | 0.63 | S | 11.5 ± 3.7 | 18.19 ± 1.12 | 3.5 | higher than 300 μM | about 30 | – | – | –
ClC(Cl)C(Cl)Cl [TCE, 1,1,2,2-tetrachloroethane] | – | – | – | 0 | S | 4010 ± 830 | – | – | – | – | – | – | –
CCCCCC [n-hexane] | – | – | – | – | N | – | – | – | – | – | n.o. | n.o. | n.o.
